Experimental data taken from patent US20220089575A1, “FARNESOID X RECEPTOR AGONISTS AND USES THEREOF” (Metacrine, Inc., priority 2017, published 2022).

target: T1, hFXR (Homo sapiens, UniProt Q96RI1); experiment: In Vitro FXR Assay (TK): TK-ECRE-luc reporter in transfected CV-1 cells; format: cell-based; details: 18 hrs, luminescence, maximum efficacy of <25% of the Fexarmine control classified as '+'
T1 construct: expressed in transfected cells; host or cells: CV-1 cells
T1 sequence (Q96RI1 1-486): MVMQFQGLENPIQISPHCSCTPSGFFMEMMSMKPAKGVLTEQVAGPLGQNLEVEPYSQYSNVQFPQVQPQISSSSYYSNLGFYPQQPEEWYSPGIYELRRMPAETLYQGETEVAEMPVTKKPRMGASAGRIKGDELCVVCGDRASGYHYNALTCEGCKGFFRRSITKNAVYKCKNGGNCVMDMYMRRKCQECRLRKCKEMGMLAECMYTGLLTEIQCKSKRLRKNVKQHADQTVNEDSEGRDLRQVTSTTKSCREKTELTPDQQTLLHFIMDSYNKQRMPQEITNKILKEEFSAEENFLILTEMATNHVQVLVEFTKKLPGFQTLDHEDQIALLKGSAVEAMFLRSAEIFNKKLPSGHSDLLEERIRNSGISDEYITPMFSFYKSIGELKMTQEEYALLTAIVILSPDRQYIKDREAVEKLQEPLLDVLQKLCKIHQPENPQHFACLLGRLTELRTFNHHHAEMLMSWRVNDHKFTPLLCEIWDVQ
T1 sequence (P19793 1-462 partner): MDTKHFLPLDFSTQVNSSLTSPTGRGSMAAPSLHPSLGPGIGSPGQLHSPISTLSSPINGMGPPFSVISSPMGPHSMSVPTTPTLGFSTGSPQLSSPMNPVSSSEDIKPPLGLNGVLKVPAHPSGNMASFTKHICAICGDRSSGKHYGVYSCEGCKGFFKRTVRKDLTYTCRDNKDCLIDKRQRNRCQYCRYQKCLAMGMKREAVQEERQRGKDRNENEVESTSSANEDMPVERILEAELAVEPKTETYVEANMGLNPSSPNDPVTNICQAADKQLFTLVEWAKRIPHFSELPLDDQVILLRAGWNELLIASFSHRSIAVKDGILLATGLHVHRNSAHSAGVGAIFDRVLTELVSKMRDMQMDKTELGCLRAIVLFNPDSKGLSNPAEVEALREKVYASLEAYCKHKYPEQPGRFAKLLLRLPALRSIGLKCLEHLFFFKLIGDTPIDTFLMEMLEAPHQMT
Procedure, shortened: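 Transiently transfected monkey CV-1 cells (hFXR, hRXR, TK-ECRE-luciferase, YFP control plasmid), held in stripped-serum DMEM, received compound dilutions from DMSO for 18 h at 37 °C. Activity was taken from luminescence of the cell lysates.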

EC50 | SMILES
≤ 250 nM | COC(=O)CC1CN(C(=O)O[C@H]2CC[C@H](C(=O)N(C[C@H]3CC[C@H](c4ccc(OC)c(C)n4)CC3)c3cc(-c4coc(C5CC5)n4)ccn3)CC2)C1 [Compound 7.85, trans-4-((4-(2-Cyclopropyloxazol-4-yl)pyridine-2-yl)((trans-4-(5-methoxy-6-methylpyridin-2-yl)cyclohexyl)methyl)carbamoyl)cyclohexyl 3-(2-methoxy-2-oxoethyl)azetidine-1-carboxylate]
250 to 1000 nM | COc1ccc([C@H]2CC[C@H](CN(c3cc(-c4coc(C5CC5)n4)ccn3)C(=O)[C@H]3CC[C@H](OC(=O)N4CC(CC(=O)O)C4)CC3)CC2)nc1C [Compound 7.86, 2-(1-(((trans-4-((4-(2-Cyclopropyloxazol-4-yl)pyridine-2-yl) ((trans-4-(5-methoxy-6-methylpyridin-2-yl)cyclohexyl)methyl)carbamoyl)cyclohexyl)oxy)carbonyl)azetidin-3-yl)acetic acid]
≤ 250 nM | CCOC1CN(C(=O)O[C@H]2CC[C@H](C(=O)N(C[C@H]3CC[C@H](c4ccc(OC)c(C)n4)CC3)c3cc(-c4coc(C5CC5)n4)ccn3)CC2)C1 [Compound 7.87, trans-4-((4-(2-Cyclopropyloxazol-4-yl)pyridine-2-yl)((trans-4-(5-methoxy-6-methylpyridin-2-yl)cyclohexyl)methyl)carbamoyl)cyclohexyl 3-ethoxyazetidine-1-carboxylate]
≤ 250 nM | COc1ccc([C@H]2CC[C@H](CN(c3cc(-c4coc(C5CC5)n4)ccn3)C(=O)[C@H]3CC[C@H](OC(=O)N4CC(C#N)C4)CC3)CC2)nc1C [Compound 7.88, trans-4-((4-(2-Cyclopropyloxazol-4-yl)pyridine-2-yl)((trans-4-(5-methoxy-6-methylpyridin-2-yl)cyclohexyl)methyl)carbamoyl)cyclohexyl 3-cyanoazetidine-1-carboxylate]
≤ 250 nM | COc1ccc([C@H]2CC[C@H](CN(c3cc(-c4coc(C5CC5)n4)ccn3)C(=O)[C@H]3CC[C@H](OC(=O)N4CC(C)C4)CC3)CC2)nc1C [Compound 7.89, trans-4-((4-(2-Cyclopropyloxazol-4-yl)pyridine-2-yl)((trans-4-(5-methoxy-6-methylpyridin-2-yl)cyclohexyl)methyl)carbamoyl)cyclohexyl 3-methylazetidine-1-carboxylate]
≤ 250 nM | CCC1CN(C(=O)O[C@H]2CC[C@H](C(=O)N(C[C@H]3CC[C@H](c4ccc(OC)c(C)n4)CC3)c3cc(-c4coc(C5CC5)n4)ccn3)CC2)C1 [Compound 7.90, trans-4-((4-(2-Cyclopropyloxazol-4-yl)pyridine-2-yl)((trans-4-(5-methoxy-6-methylpyridin-2-yl)cyclohexyl)methyl)carbamoyl)cyclohexyl 3-ethylazetidine-1-carboxylate]
≤ 250 nM | COc1ccc([C@H]2CC[C@H](CN(c3cc(-c4coc(C5CC5)n4)ccn3)C(=O)[C@H]3CC[C@H](OC(=O)N4CC(OC(C)C)C4)CC3)CC2)nc1C [Compound 7.91, trans-4-((4-(2-Cyclopropyloxazol-4-yl)pyridine-2-yl)((trans-4-(5-methoxy-6-methylpyridin-2-yl)cyclohexyl)methyl)carbamoyl)cyclohexyl 3-isopropoxyazetidine-1-carboxylate]
≤ 250 nM | COc1ncc([C@H]2CC[C@H](CN(c3cc(-c4coc(C5CC5)n4)ccn3)C(=O)[C@H]3CC[C@H](OC(=O)N4CC(N(C)C)C4)CC3)CC2)cc1C [Compound 7.92, trans-4-((4-(2-Cyclopropyloxazol-4-yl)pyridine-2-yl)((trans-4-(6-methoxy-5-methylpyridin-3-yl)cyclohexyl)methyl)carbamoyl)cyclohexyl 3-(dimethylamino)azetidine-1-carboxylate]
≤ 250 nM | COc1ncc([C@H]2CC[C@H](CN(c3cc(-c4coc(C5CC5)n4)ccn3)C(=O)[C@H]3CC[C@H](OC(=O)N4CC(OC)C4)CC3)CC2)cc1C [Compound 7.93, trans-4-((4-(2-Cyclopropyloxazol-4-yl)pyridine-2-yl)((trans-4-(6-methoxy-5-methylpyridin-3-yl)cyclohexyl)methyl)carbamoyl)cyclohexyl 3-methoxyazetidine-1-carboxylate]
